Patent US10766878B2, “Sulfonylcycloalkyl carboxamide compounds” (Genentech, Inc., priority 2017, dated 2020)

Molecular target: human TRPA1 (Homo sapiens (Human), UniProt O75762)
Experiment: hTRPA1 CHO Ca2+ AUC EVO (IC50); FLIPR Tetra block of cinnamaldehyde induced calcium influx
Assay type: cell-based
Conditions: CHO cells expressing TRPA1, 75 uM cinnamaldehyde agonist
Method: IC50 values ([…]) of compounds on the human and rat TRPA1 channels were determined using a FLIPR Tetra instrument. CHO cells expressing TRPA1 were plated into 384-well plates, incubated overnight at 37 C, and loaded with BD calcium indicator dye for 1 hr at 37° C. followed by 15 minutes. at room temperature. The assay buffer was Hank's Balanced Salt Solution (HBSS) containing 20 mM HEPES (pH readjusted to 7.4) along with 0.02% BSA.
Following dye load and plate cool down, compounds were added to the cells using FLIPR Tetra. Plates were then incubated with compounds for 20 minutes at room temperature prior to adding agonist. Following this incubation, ˜EC80 concentration of cinnamaldehyde (75 uM for human TRPA1 and 45 uM for rat TRPA1) was added to active the channels and block of cinnamaldehyde induced calcium influx was measured.
IC50 values were fit with a standard Hill function, keeping the Hill coefficient (n) fixed to 1.5. Fixing the Hill coefficient will generally reduce variability of the IC50 determination. The IC50 values were individually examined to make sure the MIN and MAX points were set correctly prior to validation of the results.

Chain of human TRPA1 (O75762 whole entry): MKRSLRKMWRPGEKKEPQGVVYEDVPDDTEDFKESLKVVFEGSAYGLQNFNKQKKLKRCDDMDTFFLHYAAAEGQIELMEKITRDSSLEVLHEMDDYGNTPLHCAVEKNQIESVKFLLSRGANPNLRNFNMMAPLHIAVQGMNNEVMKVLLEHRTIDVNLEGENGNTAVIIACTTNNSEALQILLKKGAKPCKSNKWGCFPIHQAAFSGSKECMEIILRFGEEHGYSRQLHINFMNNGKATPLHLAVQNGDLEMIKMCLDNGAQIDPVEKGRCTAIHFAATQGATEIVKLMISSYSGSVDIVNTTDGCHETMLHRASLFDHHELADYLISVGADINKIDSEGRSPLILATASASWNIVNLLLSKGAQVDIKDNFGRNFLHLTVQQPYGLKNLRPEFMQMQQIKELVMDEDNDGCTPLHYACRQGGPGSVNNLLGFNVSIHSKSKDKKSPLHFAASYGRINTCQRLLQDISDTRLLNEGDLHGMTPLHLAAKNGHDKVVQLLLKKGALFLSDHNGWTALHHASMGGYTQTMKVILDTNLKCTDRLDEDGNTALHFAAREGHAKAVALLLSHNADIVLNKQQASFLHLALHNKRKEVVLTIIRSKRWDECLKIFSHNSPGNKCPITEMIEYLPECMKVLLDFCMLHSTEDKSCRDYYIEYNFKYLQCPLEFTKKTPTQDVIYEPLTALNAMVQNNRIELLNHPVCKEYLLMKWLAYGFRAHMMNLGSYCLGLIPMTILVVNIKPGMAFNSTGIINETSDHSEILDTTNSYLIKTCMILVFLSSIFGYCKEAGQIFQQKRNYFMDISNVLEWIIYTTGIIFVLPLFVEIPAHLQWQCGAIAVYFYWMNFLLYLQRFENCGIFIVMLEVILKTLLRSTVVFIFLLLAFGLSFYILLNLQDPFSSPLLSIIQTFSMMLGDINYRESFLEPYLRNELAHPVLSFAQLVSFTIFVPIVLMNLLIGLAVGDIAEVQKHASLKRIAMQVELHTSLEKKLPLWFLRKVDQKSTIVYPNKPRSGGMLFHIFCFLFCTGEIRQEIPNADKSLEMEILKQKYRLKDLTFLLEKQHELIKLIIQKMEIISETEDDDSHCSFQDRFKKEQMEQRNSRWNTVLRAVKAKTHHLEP

Structure (SMILES)	IC50 (Table 3)	IC50 (Table 1)
O=C(Cc1cn(-c2cnc(C(F)(F)F)nc2)nc1C1CC1)N[C@@H]1CC[C@@H]1S(=O)(=O)c1ccc(F)cc1 [Example 6, 2-(3-cyclopropyl-1-(2-(trifluoromethyl)pyrimidin-5-yl)-1H-pyrazol-4-yl)-N-((1R,2S)-2-(4-fluorophenylsulfonyl)cyclobutyl)acetamide]	46.9 nM	46.9 nM
O=C(NCc1cc(-c2ccc(C(F)(F)F)nc2)ncc1Cl)[C@@H]1CC[C@@H]1S(=O)(=O)c1ccc(F)cc1 [Example 15]	140 nM	
O=C(NCc1cn(-c2cnc(C(F)(F)F)nc2)nc1C(F)F)[C@@H]1CC[C@@H]1S(=O)(=O)c1ccc(F)cc1 [Example 16, (1S,2S)-N-((3-(difluoromethyl)-1-(2-(trifluoromethyl)pyrimidin-5-yl)-1H-pyrazol-4-yl)methyl)-2-(4-fluorophenylsulfonyl) cyclobutanecarboxamide]	162 nM	
O=C(NCc1ccc(F)c(-c2cnc(C(F)(F)F)nc2)c1)[C@@H]1CC[C@@H]1S(=O)(=O)c1ccc(F)cc1 [Example 19, (1S,2S)-2-(4-fluorophenyl)sulfonyl-N-[[4-fluoro-3-[2-(trifluoromethyl)pyrimidin-5-yl]phenyl]methyl] cyclobutanecarboxamide]	159 nM	
O=C(NCc1cn(-c2ccc(C(F)(F)F)nc2)nc1C(F)F)[C@@H]1CC[C@@H]1S(=O)(=O)c1ccc(F)cc1 [Example 20, (1S,2S)-N-((3-(difluoromethyl)-1-(6-(trifluoromethyl)pyridin-3-yl)-1H-pyrazol-4-yl)methyl)-2-((4-fluorophenyl)sulfonyl) cyclobutanecarboxamide]	98.4 nM	
O=C(NCc1cc(-c2cccc(C(F)(F)F)c2)ncn1)[C@@H]1CC[C@@H]1S(=O)(=O)c1ccc(F)cc1 [Example 21, (1S,2S)-2-((4-fluorophenyl)sulfonyl)-N-((6-(3-(trifluoromethyl)phenyl)pyrimidin-4-yl)methyl)cyclobutanecarboxamide]	386 nM	
O=C(NCc1cc(-c2ccc(C(F)(F)F)cc2)ncn1)[C@@H]1CC[C@@H]1S(=O)(=O)c1ccc(F)cc1 [Example 27, (1S,2S)-2-(4-fluorophenylsulfonyl)-N-((6-(4-(trifluoromethyl)phenyl)pyrimidin-4-yl)methyl)cyclobutanecarboxamide]	113 nM	
COc1nn(-c2ccc(C(F)(F)F)nc2)cc1CNC(=O)[C@@H]1CCC[C@@H]1S(=O)(=O)c1ccc(F)cc1 [Example 40, (1S,2S)-2-(4-fluorophenylsulfonyl)-N-((3-methoxy-1-(6-(trifluoromethyl)pyridin-3-yl)-1H-pyrazol-4-yl)methyl) cyclopentanecarboxamide]	159 nM	

Compounds with a lower IC50 (Table 3), results first:

IC50 (Table 3)	IC50 (Table 1)	Structure (SMILES)
21.8 nM		O=C(NCc1cn(-c2ccc(C(F)(F)F)nc2)nc1C(F)(F)F)[C@@H]1CCC[C@@H]1S(=O)(=O)c1ccc(F)cc1 [Example 4, (1S,2S)-2-[(4-fluorobenzene)sulfonyl]-N-[[3-(trifluoromethyl)-1-[6-(trifluoromethyl)pyridin-3-yl]-1H-pyrazol-4-yl]methyl]cyclopentane-1-carboxamide]
40.3 nM	40.3 nM	O=C(Cc1cn(-c2cnc(C(F)(F)F)nc2)nc1Cl)N[C@@H]1CC[C@@H]1S(=O)(=O)c1ccc(F)cc1 [Example 7, 2-(3-chloro-1-(2-(trifluoromethyl)pyrimidin-5-yl)-1H-pyrazol-4-yl)-N-((1R,2S)-2-(4-fluorophenylsulfonyl)cyclobutyl) acetamide]
35.2 nM	35.2 nM	O=C(Cc1cn(-c2cnc(C(F)(F)F)nc2)nc1C(F)F)N[C@@H]1CC[C@@H]1S(=O)(=O)c1ccc(F)cc1 [Example 9, 2-(3-(difluoromethyl)-1-(2-(trifluoromethyl)pyrimidin-5-yl)-1H-pyrazol-4-yl)-N-((1R,2S)-2-(4-fluorophenylsulfonyl)cyclobutyl)acetamide]
43.6 nM		COc1nn(-c2ccc(C(F)F)cc2)cc1CC(=O)N[C@@H]1CC[C@@H]1S(=O)(=O)c1ccc(F)cc1 [Example 10, 2-(1-(4-(difluoromethyl)phenyl)-3-methoxy-1H-pyrazol-4-yl)-N-((1R,2S)-2-(4-fluorophenylsulfonyl)cyclobutyl) acetamide]
18.5 nM	18.5 nM	COc1nn(-c2ccc(C(F)(F)F)nc2)cc1CC(=O)N[C@@H]1CC[C@@H]1S(=O)(=O)c1ccc(F)cc1 [Example 13, N-((1R,2S)-2-((4-fluorophenyl)sulfonyl)cyclobutyl)-2-(3-methoxy-1-(6-(trifluoromethyl)pyridin-3-yl)-1H-pyrazol-4-yl)acetamide]
5.2 nM	5.2 nM	COc1nn(-c2ccc(C(F)(F)F)cc2)cc1CC(=O)N[C@@H]1CC[C@@H]1S(=O)(=O)c1ccc(F)cc1 [Example 14, N-((1R,2S)-2-((4-fluorophenyl)sulfonyl)cyclobutyl)-2-(3-methoxy-1-(4-(trifluoromethyl)phenyl)-1H-pyrazol-4-yl)acetamide]
24.2 nM		O=C(NCc1cn(-c2ccc(C(F)(F)F)cc2)nc1C(F)F)[C@@H]1CC[C@@H]1S(=O)(=O)c1ccc(F)cc1 [Example 17, (1S,2S)-N-((3-(difluoromethyl)-1-(4-(trifluoromethyl)phenyl)-1H-pyrazol-4-yl)methyl)-2-(4-fluorophenylsulfonyl) cyclobutanecarboxamide]
41.5 nM	41.5 nM	O=C(NCc1cn(-c2ccc(C(F)(F)F)nc2)nc1C(F)(F)F)[C@@H]1CC[C@@H]1S(=O)(=O)c1ccc(F)cc1 [Example 24, (1S,2S)-2-(4-fluorophenylsulfonyl)-N-((3-(trifluoromethyl)-1-(6-(trifluoromethyl)pyridin-3-yl)-1H-pyrazol-4-yl)methyl)cyclobutanecarboxamide]
19.4 nM	19.4 nM	O=C(NCc1cn(-c2ccc(C(F)(F)F)cc2)nc1Cl)[C@@H]1CC[C@@H]1S(=O)(=O)c1ccc(F)cc1 [Example 28, (1S,2S)-N-((3-chloro-1-(4-(trifluoromethyl)phenyl)-1H-pyrazol-4-yl)methyl)-2-(4-fluorophenylsulfonyl) cyclobutanecarboxamide]
40.4 nM		O=C(NCc1cn(-c2ccc(C(F)(F)F)nc2)nc1C(F)(F)F)[C@@H]1CCC[C@@H]1S(=O)(=O)c1ccc(F)cc1 [Example 41, (1S,2S)-2-[(4-fluorobenzene)sulfonyl]-N-[[3-(trifluoromethyl)-1-[6-(trifluoromethyl)pyridin-3-yl]-1H-pyrazol-4-yl]methyl]cyclopentane-1-carboxamide]
38.9 nM	38.9 nM	O=C(NCc1cn(-c2ccc(C(F)(F)F)cc2)nc1Cl)[C@@H]1CCC[C@@H]1S(=O)(=O)c1ccc(F)cc1 [Example 43, (1S,2S)-N-((3-chloro-1-(4-(trifluoromethyl)phenyl)-1H-pyrazol-4-yl)methyl)-2-(4-fluorophenylsulfonyl) cyclopentanecarboxamide]
